Assay results published in ChEMBL document CHEMBL1201862, “PubChem BioAssay data set” (2004).
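Assay format: 96-well plates, 48-hour exposure. Here, GI50 denotes the concentration required for 50% inhibition of growth.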 Calls of active or inactive are those of the source. Cut-off read from the data, not from the text of the source: active = GI50 up to about 1.1 µM and inactive = higher.

Key:
Assay in all cases: inhibition of tumour cell growth, NCI panel, 48 h
CAKI-1 = tested on: CAKI-1
SF-295 = tested on: SF-295
A498 = tested on: A498
SK-MEL-28 = tested on: SK-MEL-28
CCRF-CEM = tested on: CCRF-CEM
DU-145 = tested on: DU-145
MDA-MB-435 = tested on: MDA-MB-435
SNB-19 = tested on: SNB-19
MOLT-4 = tested on: MOLT-4
UO-31 = tested on: UO-31
OVCAR-4 = tested on: OVCAR-4
HCT-15 = tested on: HCT-15
NCI/ADR-RES = tested on: NCI/ADR-RES
RPMI-8226 = tested on: RPMI-8226
SW-620 = tested on: SW-620
MDA-N = tested on: MDA-N
HCC 2998 = tested on: HCC 2998
NCI-H460 = tested on: NCI-H460
SF-268 = tested on: SF-268
SK-MEL-2 = tested on: SK-MEL-2
EKVX = tested on: EKVX
OVCAR-5 = tested on: OVCAR-5
Malme-3M = tested on: Malme-3M
HCT-116 = tested on: HCT-116
ACHN = tested on: ACHN
SF-539 = tested on: SF-539
OVCAR-8 = tested on: OVCAR-8
HOP-62 = tested on: HOP-62
SNB-75 = tested on: SNB-75
BT-549 = tested on: BT-549
U-251 = tested on: U-251
A549 = tested on: A549
OVCAR-3 = tested on: OVCAR-3
NCI-H23 = tested on: NCI-H23
COLO 205 = tested on: COLO 205
T47D = tested on: T47D
SK-OV-3 = tested on: SK-OV-3
Hs-578T = tested on: Hs-578T
UACC-62 = tested on: UACC-62
HT-29 = tested on: HT-29
SN12C = tested on: SN12C
NCI-H226 = tested on: NCI-H226
MDA-MB-231 = tested on: MDA-MB-231
UACC-257 = tested on: UACC-257
PC-3 = tested on: PC-3
KM12 = tested on: KM12
786-0 = tested on: 786-0
MCF7 = tested on: MCF7
M14 = tested on: M14
SR = tested on: SR
TK-10 = tested on: TK-10
NCI-H522 = tested on: NCI-H522
IGROV-1 = tested on: IGROV-1
HL-60 = tested on: HL-60
K562 = tested on: K562
SK-MEL-5 = tested on: SK-MEL-5
HOP-92 = tested on: HOP-92
LOX IMVI = tested on: LOX IMVI

Question: For `O=[N+]([O-])C(/C(Cl)=C(/Cl)N1CCOCC1)=C1\NCCO1`, which GI50 (CAKI-1) is on record?
Answer: > 100 µM (inactive)

Question: What about the GI50 (SF-295) of the same molecule?
Answer: > 100 µM (inactive)

Question: And the GI50 (A498)?
Answer: > 100 µM (inactive)

Question: And the GI50 (SK-MEL-28)?
Answer: > 100 µM (inactive)

Question: And the GI50 (CCRF-CEM)?
Answer: > 100 µM (inactive)

Question: And the GI50 (DU-145)?
Answer: > 100 µM (inactive)

Question: And the GI50 (MDA-MB-435)?
Answer: > 100 µM (inactive)

Question: And the GI50 (SNB-19)?
Answer: > 100 µM (inactive)

Question: What about the GI50 (MOLT-4) of the same molecule?
Answer: > 100 µM (inactive)

Question: What about the GI50 (UO-31) of the same molecule?
Answer: > 100 µM (inactive)

Question: And the GI50 (OVCAR-4)?
Answer: > 100 µM (inactive)

Question: What about the GI50 (HCT-15) of the same molecule?
Answer: > 100 µM

Question: What about the GI50 (NCI/ADR-RES) of the same molecule?
Answer: > 100 µM (inactive)

Question: What about the GI50 (RPMI-8226) of the same molecule?
Answer: > 100 µM (inactive)

Question: And the GI50 (SW-620)?
Answer: > 100 µM (inactive)

Question: And the GI50 (MDA-N)?
Answer: > 100 µM (inactive)

Question: What about the GI50 (HCC 2998) of the same molecule?
Answer: > 100 µM (inactive)

Question: And the GI50 (NCI-H460)?
Answer: > 100 µM (inactive)

Question: And the GI50 (SF-268)?
Answer: > 100 µM (inactive)

Question: And the GI50 (SK-MEL-2)?
Answer: > 100 µM (inactive)

Question: What about the GI50 (EKVX) of the same molecule?
Answer: > 100 µM (inactive)

Question: What about the GI50 (OVCAR-5) of the same molecule?
Answer: > 100 µM (inactive)

Question: And the GI50 (Malme-3M)?
Answer: > 100 µM (inactive)

Question: What about the GI50 (HCT-116) of the same molecule?
Answer: > 100 µM (inactive)

Question: And the GI50 (ACHN)?
Answer: > 100 µM (inactive)

Question: And the GI50 (SF-539)?
Answer: > 100 µM (inactive)

Question: What about the GI50 (OVCAR-8) of the same molecule?
Answer: > 100 µM (inactive)

Question: And the GI50 (HOP-62)?
Answer: > 100 µM (inactive)

Question: What about the GI50 (SNB-75) of the same molecule?
Answer: > 100 µM (inactive)

Question: What about the GI50 (BT-549) of the same molecule?
Answer: > 100 µM (inactive)

Question: And the GI50 (U-251)?
Answer: > 100 µM (inactive)

Question: And the GI50 (A549)?
Answer: > 100 µM (inactive)

Question: And the GI50 (OVCAR-3)?
Answer: > 100 µM (inactive)

Question: And the GI50 (NCI-H23)?
Answer: > 100 µM (inactive)

Question: And the GI50 (COLO 205)?
Answer: > 100 µM (inactive)

Question: And the GI50 (T47D)?
Answer: > 100 µM (inactive)

Question: What about the GI50 (SK-OV-3) of the same molecule?
Answer: > 100 µM (inactive)

Question: What about the GI50 (Hs-578T) of the same molecule?
Answer: > 100 µM (inactive)

Question: And the GI50 (UACC-62)?
Answer: > 100 µM (inactive)

Question: What about the GI50 (HT-29) of the same molecule?
Answer: > 100 µM (inactive)

Question: What about the GI50 (SN12C) of the same molecule?
Answer: > 100 µM (inactive)

Question: And the GI50 (NCI-H226)?
Answer: > 100 µM (inactive)

Question: And the GI50 (MDA-MB-231)?
Answer: > 100 µM (inactive)

Question: And the GI50 (UACC-257)?
Answer: > 100 µM (inactive)

Question: What about the GI50 (PC-3) of the same molecule?
Answer: > 100 µM (inactive)

Question: What about the GI50 (KM12) of the same molecule?
Answer: > 100 µM (inactive)

Question: What about the GI50 (786-0) of the same molecule?
Answer: > 100 µM (inactive)

Question: And the GI50 (MCF7)?
Answer: > 100 µM (inactive)

Question: And the GI50 (M14)?
Answer: > 100 µM (inactive)

Question: For `C/C(=N/OC(=O)c1cccc2c(=O)c3ccccc3[nH]c12)[C@H]1CC[C@H]2[C@@H]3CCC4=C/C(=N/OC(=O)c5cccc6c(=O)c7ccccc7[nH]c56)CC[C@]4(C)[C@H]3CC[C@]12C`, which GI50 (CAKI-1) is on record?
Answer: 21.2 µM (inactive)

Question: And the GI50 (SF-295)?
Answer: 16.8 µM (inactive)

Question: And the GI50 (SR)?
Answer: 3.61 µM (inactive)

Question: And the GI50 (CCRF-CEM)?
Answer: 2.4 µM (inactive)

Question: And the GI50 (DU-145)?
Answer: 22.7 µM (inactive)

Question: What about the GI50 (TK-10) of the same molecule?
Answer: 17.8 µM (inactive)

Question: And the GI50 (MDA-MB-435)?
Answer: 15.5 µM (inactive)

Question: And the GI50 (SNB-19)?
Answer: 18.2 µM (inactive)

Question: What about the GI50 (MOLT-4) of the same molecule?
Answer: 10.4 µM (inactive)

Question: And the GI50 (NCI-H522)?
Answer: 12.3 µM (inactive)

Question: And the GI50 (UO-31)?
Answer: 15 µM (inactive)

Question: What about the GI50 (OVCAR-4) of the same molecule?
Answer: 34 µM (inactive)

Question: What about the GI50 (HCT-15) of the same molecule?
Answer: 14 µM

Question: And the GI50 (NCI/ADR-RES)?
Answer: 20.4 µM (inactive)

Question: And the GI50 (RPMI-8226)?
Answer: 2.9 µM (inactive)

Question: What about the GI50 (SW-620) of the same molecule?
Answer: 13.9 µM (inactive)

Question: And the GI50 (MDA-N)?
Answer: 14.1 µM (inactive)

Question: What about the GI50 (HCC 2998) of the same molecule?
Answer: 14 µM (inactive)

Question: And the GI50 (IGROV-1)?
Answer: 14.4 µM (inactive)

Question: What about the GI50 (SF-268) of the same molecule?
Answer: 17 µM (inactive)

Question: And the GI50 (SK-MEL-2)?
Answer: 12.8 µM (inactive)

Question: What about the GI50 (EKVX) of the same molecule?
Answer: 10.6 µM (inactive)

Question: What about the GI50 (HL-60) of the same molecule?
Answer: 3.91 µM (inactive)

Question: And the GI50 (OVCAR-5)?
Answer: 17.4 µM (inactive)

Question: And the GI50 (Malme-3M)?
Answer: 22.2 µM (inactive)

Question: And the GI50 (HCT-116)?
Answer: 12.5 µM (inactive)

Question: And the GI50 (ACHN)?
Answer: 16 µM (inactive)

Question: And the GI50 (K562)?
Answer: 4.97 µM (inactive)

Question: And the GI50 (SF-539)?
Answer: 15.1 µM (inactive)

Question: And the GI50 (OVCAR-8)?
Answer: 15.7 µM (inactive)

Question: And the GI50 (HOP-62)?
Answer: 24.8 µM (inactive)

Question: What about the GI50 (SNB-75) of the same molecule?
Answer: 29.9 µM (inactive)

Question: What about the GI50 (BT-549) of the same molecule?
Answer: 17.7 µM (inactive)

Question: And the GI50 (U-251)?
Answer: 15.8 µM (inactive)

Question: What about the GI50 (A549) of the same molecule?
Answer: 25.6 µM (inactive)

Question: And the GI50 (OVCAR-3)?
Answer: 17.1 µM (inactive)

Question: What about the GI50 (NCI-H23) of the same molecule?
Answer: 15.5 µM (inactive)

Question: What about the GI50 (COLO 205) of the same molecule?
Answer: 15.8 µM (inactive)

Question: And the GI50 (T47D)?
Answer: 14.5 µM (inactive)

Question: And the GI50 (SK-OV-3)?
Answer: 27 µM (inactive)

Question: And the GI50 (Hs-578T)?
Answer: 27.7 µM (inactive)

Question: What about the GI50 (UACC-62) of the same molecule?
Answer: 14.1 µM (inactive)

Question: What about the GI50 (SK-MEL-5) of the same molecule?
Answer: 13.1 µM (inactive)

Question: What about the GI50 (HT-29) of the same molecule?
Answer: 13.5 µM (inactive)

Question: What about the GI50 (SN12C) of the same molecule?
Answer: 14.7 µM (inactive)

Question: And the GI50 (HOP-92)?
Answer: 21.3 µM (inactive)

Question: What about the GI50 (NCI-H226) of the same molecule?
Answer: 20 µM (inactive)

Question: And the GI50 (MDA-MB-231)?
Answer: 14.3 µM (inactive)

Question: And the GI50 (UACC-257)?
Answer: 17.1 µM (inactive)

Question: And the GI50 (PC-3)?
Answer: 10.5 µM (inactive)

Question: What about the GI50 (KM12) of the same molecule?
Answer: 15.2 µM (inactive)

Question: What about the GI50 (786-0) of the same molecule?
Answer: 18.5 µM (inactive)

Question: And the GI50 (LOX IMVI)?
Answer: 12.9 µM (inactive)

Question: And the GI50 (MCF7)?
Answer: 11.2 µM (inactive)

Question: What about the GI50 (M14) of the same molecule?
Answer: 14.6 µM (inactive)
